# Molecular target: c-Met (Homo sapiens, UniProt P08581)
# Assay: Ki determination for the inhibition of c-Met kinase activity (standard coupled enzyme system)
# Assay type: biochemical
# Settings: coupled enzyme system, 200 μM ATP, 80 nM c-Met, 30° C.; read-out: c-Met Ki
# Outline: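 Continuous coupled-enzyme (PK/LDH, NADH depletion) assay with 80 nM c-Met, 200 μM ATP and 10 μM polyGluTyr in 100 mM HEPES pH 7.5, 10 mM MgCl2, 1.5% DMSO at 30 °C.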
# c-Met, sequence (P08581 25-1390): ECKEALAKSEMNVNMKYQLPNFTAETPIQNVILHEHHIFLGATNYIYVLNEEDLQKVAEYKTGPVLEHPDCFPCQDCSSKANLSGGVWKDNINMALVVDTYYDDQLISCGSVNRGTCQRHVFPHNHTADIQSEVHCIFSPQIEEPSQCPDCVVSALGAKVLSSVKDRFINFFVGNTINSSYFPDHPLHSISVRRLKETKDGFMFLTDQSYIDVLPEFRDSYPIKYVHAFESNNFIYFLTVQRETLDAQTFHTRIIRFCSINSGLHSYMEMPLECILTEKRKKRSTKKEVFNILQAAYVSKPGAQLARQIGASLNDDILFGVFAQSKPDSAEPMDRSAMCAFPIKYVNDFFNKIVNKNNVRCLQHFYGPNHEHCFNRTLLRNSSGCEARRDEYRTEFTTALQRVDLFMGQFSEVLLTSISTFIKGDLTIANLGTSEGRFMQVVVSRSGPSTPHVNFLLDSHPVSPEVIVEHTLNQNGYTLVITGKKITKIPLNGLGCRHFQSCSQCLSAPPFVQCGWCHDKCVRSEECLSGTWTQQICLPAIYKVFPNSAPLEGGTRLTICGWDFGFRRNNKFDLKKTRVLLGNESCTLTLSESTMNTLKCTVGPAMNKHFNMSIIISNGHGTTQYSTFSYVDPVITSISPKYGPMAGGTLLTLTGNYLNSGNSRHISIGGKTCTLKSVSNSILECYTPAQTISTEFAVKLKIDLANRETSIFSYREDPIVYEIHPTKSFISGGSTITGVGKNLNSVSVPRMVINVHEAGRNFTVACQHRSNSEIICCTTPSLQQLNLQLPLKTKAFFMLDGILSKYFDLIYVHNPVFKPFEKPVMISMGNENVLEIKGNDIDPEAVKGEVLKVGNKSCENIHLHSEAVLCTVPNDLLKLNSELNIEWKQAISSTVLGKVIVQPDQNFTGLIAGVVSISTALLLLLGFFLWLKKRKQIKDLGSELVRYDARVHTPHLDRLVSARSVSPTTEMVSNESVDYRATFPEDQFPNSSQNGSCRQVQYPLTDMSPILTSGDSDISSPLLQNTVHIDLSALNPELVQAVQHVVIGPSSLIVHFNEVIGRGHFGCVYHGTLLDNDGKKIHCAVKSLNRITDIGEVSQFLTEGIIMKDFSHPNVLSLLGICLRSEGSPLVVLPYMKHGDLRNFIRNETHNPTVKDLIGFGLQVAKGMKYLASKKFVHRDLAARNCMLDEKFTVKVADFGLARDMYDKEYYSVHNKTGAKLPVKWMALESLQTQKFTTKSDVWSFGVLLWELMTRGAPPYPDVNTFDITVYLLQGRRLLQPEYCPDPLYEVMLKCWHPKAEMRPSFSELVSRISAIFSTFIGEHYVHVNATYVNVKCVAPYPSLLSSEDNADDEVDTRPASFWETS
row,SMILES,Ki
1,O=C1COc2ccc(C3=Nn4c(Cc5ccc(O)cc5)nnc4SC3)cc2N1 [Compound 535],100 to 2000 nM
2,CC(c1ccc(F)cc1)c1nnc2ccc(Nc3cccc(Cl)c3)nn12 (centres unmarked) [Compound 493],< 100 nM
3,O=c1ccc(Cc2nnc3ccc(Nc4cccc(Cl)c4)nn23)c[nH]1 [Compound 502],< 100 nM
4,Fc1ccc(Cc2nnc3n2N=C(c2cccs2)CS3)cc1 [Compound 546],100 to 2000 nM
5,c1csc(C2=Nn3c(Cc4ccncc4)nnc3SC2)c1 [Compound 545],> 2000 nM
6,C[C@@H](c1ccc(O)cc1)c1nnc2ccc(Nc3cc(Cl)ccc3OCCN3CCCC3)nn12 [Compound 443],100 to 2000 nM
7,Oc1ccc(Cc2nnc3ccc(NC4CCNCC4)nn23)cc1 [Compound 322],> 2000 nM
8,CCc1cccc(Nc2ccc3nnc(Cc4ccc(O)c(Cl)c4)n3n2)c1 [Compound 290],100 to 2000 nM
9,Clc1cccc(Nc2ccc3nnc(Cc4ccc(Cl)nc4)n3n2)c1 [Compound 354],100 to 2000 nM
10,CC1(C)CC(Nc2ccc3nnc(Cc4ccc(O)cc4)n3n2)CCO1 (centres unmarked) [Compound 302],100 to 2000 nM
11,Clc1cccc(Nc2ccc3nnc(Cn4ccc5ncccc54)n3n2)c1 [Compound 418],< 100 nM
12,Oc1c(Cc2nnc3ccc(Nc4cccc(Cl)c4)nn23)cnc2ncnn12 [Compound 516],> 2000 nM
13,O=C1NCCCCC1Nc1ccc2nnc(Cc3ccc(O)cc3)n2n1 (centres unmarked) [Compound 307],> 2000 nM
14,N#Cc1ccc(Cc2nnc3ccc(Nc4cccc(Cl)c4)nn23)cc1 [Compound 474],100 to 2000 nM
15,NC(=O)c1ncccc1OCc1nnc2ccc(Nc3cccc(Cl)c3)nn12 [Compound 478],> 2000 nM
16,Oc1ccc(NCc2nnc3ccc(Nc4cccc(Cl)c4)nn23)cc1 [Compound 412],100 to 2000 nM
17,COc1ccc(Cc2nnc3ccc(Nc4cccc(Cl)c4)nn23)cc1Br [Compound 437],100 to 2000 nM
18,Clc1cccc(Nc2ccc3nnc(Cn4ccc5cccnc54)n3n2)c1 [Compound 462],> 2000 nM
19,Fc1ccc(SCc2nnc3ccc(Nc4cccc(Cl)c4)nn23)cc1 [Compound 390],> 2000 nM
20,N#Cc1cccc(OCc2nnc3ccc(Nc4cccc(Cl)c4)nn23)c1 [Compound 471],> 2000 nM
21,Clc1cccc(Nc2ccc3nnc(CNc4cccc5ncccc45)n3n2)c1 [Compound 518],< 100 nM

# Same assay, conditions: coupled enzyme system, 200 μM ATP, 10 μM polyGluTyr, 80 nM c-Met, 30° C.; read-out: c-Met Ki
row,SMILES,Ki
1,Clc1ccc(Nc2nn3c(Cc4ccc5c(c4)OCO5)nnc3s2)cc1 [Compound 56],100 to 2000 nM
2,Oc1ccc(Cc2nnc3sc(Nc4cccc(F)c4)nn23)cc1Cl [Compound 97],< 100 nM
3,CC(C)C(CO)Nc1ccc2nnc(Cc3ccc(O)cc3)n2n1 (centres unmarked) [Compound 282],100 to 2000 nM
4,Oc1ccc(Cc2nnc3sc(Nc4ccc(-n5cccn5)cc4)nn23)cc1 [Compound 71],< 100 nM
5,Oc1ccc(Cc2nnc3sc(Nc4cccnc4)nn23)cc1F [Compound 83],100 to 2000 nM
6,CN(C)c1ccc(Cc2nnc3ccc(-c4ccccc4)nn23)cc1 [Compound 212],> 2000 nM
7,c1ccc(-c2ccc3nnc(CNc4cccnc4)n3n2)cc1 [Compound 208],> 2000 nM
8,Cc1cc(F)ccc1Nc1nn2c(Cc3ccc(O)cc3)nnc2s1 [Compound 76],100 to 2000 nM
9,Oc1cccc(CCc2nnc3sc(Nc4cccc(Cl)c4)nn23)c1 [Compound 92],> 2000 nM
10,Fc1cc(F)cc(Nc2ccc3nnc(Cc4ccc5c(c4)OCO5)n3n2)c1 [Compound 253],< 100 nM
11,C[C@@H](c1ccc(O)cc1)c1nnc2sc(Nc3ccc(F)c(Cl)c3)nn12 [Compound 159],< 100 nM
12,Clc1cc(Cl)cc(Nc2ccc3nnc(Cc4ccc5c(c4)OCO5)n3n2)c1 [Compound 246],100 to 2000 nM
13,Cc1ccc(Nc2nn3c(Cc4ccc(O)cc4)nnc3s2)cc1Cl [Compound 73],100 to 2000 nM
14,Oc1ccc(Cc2nnc3ccc(Nc4cc(F)cc(F)c4)nn23)cc1Cl [Compound 251],< 100 nM
15,CC(O)c1cccc(Nc2ccc3nnc(Cc4ccc(O)c(F)c4)n3n2)c1 (centres unmarked) [Compound 256],100 to 2000 nM
16,OCc1cccc(Nc2ccc3nnc(Cc4ccc(O)cc4)n3n2)c1 [Compound 259],< 100 nM
17,O=C1CCN(c2ccc3nnc(Cc4ccc(O)cc4)n3n2)CCN1 [Compound 190],100 to 2000 nM
